These results are taken from paper PMC5154303, “Flavonol and imidazole derivatives block HPV16 E6 activities and reactivate apoptotic pathways in HPV^+ cells” (Cell Death & Disease, 2016).

Format in all cases: cell-based, human
In series [1] the test system is SiHa cells. The series is described as follows: Cell toxicity in SiHa cells without TRAIL (MTT). The following applies: overnight. How it is done:
(§1) Figure 3 (a) HPV^+ SiHa cells are resistant to TRAIL-induced apoptosis as compared with the human osteosarcoma cell line U2OS. Cells (2 × 10^4 cells per well) were seeded into a 96-well plate, allowed to incubate overnight, and then treated with the indicated concentration of TRAIL in the presence of cycloheximide (5 μg/ml). The viability of cells was measured after overnight incubation using the MTT assay; the viability of cells untreated with TRAIL was set at 100% for each group. (b) The indicated concentrations of three small molecules were added to SiHa cells, and an MTT assay was preformed after overnight incubation. The viability of cells untreated with small molecules was set as 100%. (c) The indicated concentrations of myricetin or spinacine were added 4 h prior to TRAIL (100 ng/ml) in the presence of cycloheximide (5 μg/ml) and incubated at 37 °C overnight. […] Cell viability was measured after overnight incubation using the MTT assay, and the viability of cells untreated with either myricetin or spinacine was set at 100%. […]
(§2) The extracellular domain of human TRAIL was cloned into a pTriEx expression plasmid containing N-terminal Hisx6 tag. […] All experiments were repeated at least three times (three biological replicates, carried out on different days), with each experimental group measured in triplicate within each of these individual experiments. […]

The subject of series [2] is SiHa cells. The series is described as follows: Sensitization of SiHa cells to doxorubicin (MTT). The following applies: 100 μM myricetin or 50 μM spinacine 4 h prior to doxorubicin, versus negative control. How it is done:
as §1, §2

In the next series the test system is caspase 3/7. As to the kind of experiment: Caspase 3/7 activity assay in SiHa cells. The following applies: 100 μM myricetin or 50 μM spinacine 4 h, then TRAIL 100 ng/ml + cycloheximide, 0–6 h, versus controls. How it is done:
Figure 4 Myricetin and spinacine (5) increase caspase 3/7 activity in SiHa cells following treatment with TRAIL and chemotherapy drugs. SiHa cells (2 × 10^4 cells per well) were seeded into a 96-well plate and allowed to incubate overnight and then pretreated with 100 μM of myricetin or 50 μM of spinacine for 4 h. (a) TRAIL (100 ng/ml), along with cycloheximide (5 μg/ml), (b) cisplatin (50 μM), or (c) doxorubicin (2 μM) were added respectively. Caspase 3/7 activity was measured after 0, 1.5, 3, and 6 h using the CellTiter-Glo assay. Activity at 0 h of treatment was set at 100% for each group. Experiments were performed in triplicate, and error bars indicate the S.D.
Cells were plated into 96-well plates at a density of 2 × 10^4 cells per well and incubated overnight. Small molecules were then added and incubated at 37 °C for 4 h. TRAIL (100 ng/ml), cisplatin (50 μM), and doxorubicin (2 μM) were then added. […] Caspase 3/7 activity was measured using the flourogenic substrate CellTitier-Glo for caspase 3/7 activity (Promega, Fitchburg, WI, USA) following the manufacturer's instructions. […] After a 10-min incubation, the released fluorophore was measured using a plate-reading fluorimeter (Flx800, Bio-Tek Instrument Co., Winooski, VT, USA). […] The resulting difference was expressed as a percentage of the caspase activity of the untreated cells.

Another series concerns UMSCC29. The series is described as follows: TRAIL-induced cell death in HPV− HNSCC line UMSCC29 (MTT). Conditions: HPV− #29, myricetin 0–200 μM or spinacine 0–100 μM, 50 ng/ml TRAIL. How it is done:
(§3) Figure 7 Myricetin and spinacine (5) can re-sensitize HPV^+, but not HPV^−, head and neck cancer cell lines to treatment with TRAIL. (a) Both HPV^− and HPV^+ HN cancer cell lines display resistance to TRAIL treatment. (b) HPV^− (UMSCC 29 and SCC 84) and (c) HPV^+ (UMSCC 47, UPCI-SCC90-UP-Clone 35, and UM-SCC47-TC-Clone 3) head and neck cancer cell lines (2 × 10^4 cells per well) were seeded into 96-well plates and allowed to incubate overnight, and then cells were pretreated with myricetin (0–200 μM) or spinacine (0–100 μM) for 4 h. […] Cell viability was measured by the MTT assay, and the viability of cells untreated with small molecules was set at 100%. Experiments were performed in triplicate, and error bars indicate the S.D.
(§4) The extracellular domain of human TRAIL was cloned into a pTriEx expression plasmid containing N-terminal Hisx6 tag. His-TRAIL was expressed in the E. coli BL-21 pLys strain and purified as previously described. Doxorubicin and cisplatin were purchased from Sigma. His-TRAIL, doxorubicin, and cisplatin were diluted in PBS to the desired concentration before using. […] All experiments were repeated at least three times (three biological replicates, carried out on different days), with each experimental group measured in triplicate within each of these individual experiments. […]

The test system of a further series is UMSCC 29. As to the kind of experiment: Sensitization to doxorubicin in HPV− HNSCC line UMSCC 29 (MTT). Conditions: HPV− #29, compound 0–12.5 μM, 2 μM doxorubicin. How it is done: Figure 8 Myricetin and spinacine (5) can re-sensitize HPV^+, but not HPV^−, HNSCC cell lines to treatment with doxorubicin. Two HPV^− (UMMSCC 29 and SCC 84) and three HPV^+ (UMSCC 47, UPCI-SCC90-UP-Clone 35, and UM-SCC47-TC Clone 3) head and neck cancer cell lines (2 × 10^4 cells per well) were seeded into 96-well plates and allowed to incubate overnight, and then cells were pretreated with myricetin or spinacine (0–12.5 μM) for 4 h. In all, 2 μM of doxorubicin was added, and the cells were allowed to incubate overnight. Cell viability was measured by MTT assay, and the viability of cells untreated with small molecules was set at 100%. Experiments were performed in triplicate, and error bars indicate the S.D.
as §4

Another series has as its system SCC84. As to the kind of experiment: TRAIL-induced cell death in HPV− HNSCC line SCC84 (MTT). The following applies: HPV− #84, myricetin 0–200 μM or spinacine 0–100 μM, 50 ng/ml TRAIL. How it is done: as §3, §4
Series [3] has as its system SiHa cells. The series is described as follows: Sensitization of SiHa cells to cisplatin (MTT). The following applies: 100 μM myricetin or 50 μM spinacine 4 h prior to cisplatin, versus negative control. How it is done: as §1, §2

For the molecule `O=c1c(O)c(-c2cc(O)c(O)c(O)c2)oc2cc(O)cc(O)c12` [Myricetin, myricetin, reference compound], in the series on SiHa cells [1], the “toxicity to SiHa cells in the absence of TRAIL” value is listed as “low toxicity”. Further, the “sensitivity of SiHa cells to doxorubicin” value in the series with SiHa cells [2] is on record as “increased the sensitivity”. In addition, the “caspase 3/7 activity in combination with TRAIL” value in the series with caspase 3/7 is on record as “increased”. For the same molecule, the “response to TRAIL in presence and absence of compound” value with UMSCC29 and in the series on SCC84 was “resistant” throughout. Further, in the series on UMSCC 29, the “response to doxorubicin in presence and absence of compound” value is listed as “resistant”. For the same molecule, the “sensitivity of SiHa cells to cisplatin” value with SiHa cells [3] is “increased the sensitivity”.

For `O=C(O)C1Cc2[nH]cnc2CN1` (centres unmarked) [Spinacine (5), 4,5,6,7-tetrahydro-1H-imidazo[4,5–c]pyridine-6-carboxylic acid], the “toxicity to SiHa cells in the absence of TRAIL” value in the series with SiHa cells [1] was “low toxicity”. In addition, in the series with SiHa cells [2], the “sensitivity of SiHa cells to doxorubicin” value was “increased the sensitivity”. Further, in the series with caspase 3/7, the “caspase 3/7 activity in combination with TRAIL” value is given as “increased”. Besides, the “response to TRAIL in presence and absence of compound” value with UMSCC29 and with SCC84 was “resistant” throughout. Further, the “response to doxorubicin in presence and absence of compound” value in the series with UMSCC 29 is listed as “resistant”. The “sensitivity of SiHa cells to cisplatin” value with SiHa cells [3] is on record as “increased the sensitivity”.
